The record followed here is patent US4518413A, “Poly-phosphorodiamide urease inhibitors and urease inhibited urea based fertilizer compositions” (Allied Corporation, priority 1983, dated 1985).

In general, % Inhibition refers to the percentage by which the read-out fell short of the control.

The subject of this assay is soil urease. The experiment in a line: Efficacy test: inhibition of urease-catalysed urea hydrolysis in soil (urea remaining after incubation). To be noted: New York soil (Cazenovia silt loam, pH 7.2); 800 micrograms test compound and 42.8 mg urea per 20 g air-dry soil; incubated at 25° C. for three days; run in triplicate. It is filed as biochemical. On the procedure:
Efficacy tests were conducted to evaluate the efficacy of certain representative poly-phosphorodiamide compounds as urease inhibitors. The inhibition tests were run in a New York soil (Cazenovia silt loam, pH 7.2). Evaluations (run in triplicate) consisted of applying 800 micrograms of the test compound in 5 mL of water and 42.8 mg of urea in 1 mL of water to 20 g of air-dry soil in a glass bottle. The bottle was capped with perforated aluminum foil and incubated at 25° C. for three days prior to extraction with 100 mL of a 2M KCl solution containing 0.5 mg of phenylmercuric acetate. The extracts were then analyzed for remaining urea using an autoanalyzer. Percent inhibition was calculated as [formula] where A is urea recovered from unincubated sample (urea added to soil and immediately extracted); B is urea recovered from inhibited sample; and C is urea recovered from the control (uninhibited sample).
For the compound `NP(N)(=O)NCCCCCCNP(N)(N)=O` [N,N'-Bis-(diaminophosphinyl)-1,6-diaminohexane], the “% Inhibition” value is 86%.

Take `CC1(NP(N)(N)=O)CCC(C(C)(C)NP(N)(N)=O)CC1` (stereo not drawn) [N,N'-Bis-(diaminophosphinyl)-1,8-diamino-p-menthane]: the “% Inhibition” value turned out to be 84%.

Regarding `NP(N)(=O)N1CCN(P(N)(N)=O)CC1` [N,N'Bis-diaminophosphinyl-piperazine, N,N'-Bis-(diaminophosphinyl)piperazine], the “% Inhibition” value is 76%.

Regarding `NP(N)(=O)Oc1cccc(OP(N)(N)=O)c1` [Phosphorodiamidic Acid 1,3-Phenylene Ester], the “% Inhibition” value came out at 81%.

For `NP(N)(=O)Oc1ccc(OP(N)(N)=O)cc1` [Phosphorodiamidic Acid 1,4-Phenylene Ester], the “% Inhibition” value came out at 90%.

Take `CC(C)(c1ccc(OP(N)(N)=O)cc1)c1ccc(OP(N)(N)=O)cc1` [Phosphorodiamidic Acid (1-Methylethylidene)-di-4,1-PhenyleneEster]: the “% Inhibition” value is recorded as 70%.
